Target: mushroom tyrosinase
Assay: spectrophotometric dopachrome assay (L-DOPA substrate, […] nm)
Format: biochemical

IC50: 253 µM
Compound: C=C1C(=O)OC2C=C(C)CC3C=C(CCC=C(C)CCC12)C(=O)O3 (stereo not shown) [ovatodiolide]

From paper PMC3382824, “Antioxidative Characteristics of Anisomeles indica Extract and Inhibitory Effect of Ovatodiolide on Melanogenesis” (2012)
